As a reminder, the ED50 is the midpoint of the dose-response relation.

The values that follow come from US4079134A, “7-Acylamino-3-(5-sulfomethyl-1,3,4-thiadiazol-2-y lthiomethyl)-3-cephem-4-carboxylic acids” (SmithKline Corporation, priority 1976, dated 1978).

≈ marks a conversion by molar mass, not a printed value. Counter-ions that a name gives are not always drawn. Like-named read-outs stand apart in the source and are kept apart here. A value given as a limit tells only on which side of the number the result lay.

For assay [1], the system named is Kleb. pneumo. SK 1200. In words: MIC in vitro. The assay is classed as cell-based. To be noted: read-out: minimum inhibitory concentration (MIC). As to the method:
(§1) The compounds of Formula I have antibacterial activity against either Gram positive or Gram negative bacteria with minimum inhibitory concentrations (MIC's) in vitro from 0.4 to 200 μg/ml. Test results for 7-D-mandelamido-3-(5-sulfomethyl-1,3,4-thiadiazol-2-ylthiomethyl)-3-cephem-4-carboxylic acid, disodium salt, tetrahydrate (A) are: […]

The test system of assay [2] is S. aureus villaluz SK 70390. Nature of the assay: MIC in vitro. The assay is classed as cell-based. To be noted: Staphylococcus aureus, read-out: minimum inhibitory concentration (MIC). How it is done:
as §1

Assay [3] relates to Proteus morgani 179. Nature of the assay: MIC in vitro. The assay is classed as cell-based. To be noted: read-out: minimum inhibitory concentration (MIC). How it is done:
as §1

The subject of assay [4] is Strep. Faecalis HH 34358. Nature of the assay: MIC in vitro. The assay is classed as cell-based. To be noted: Enterococcus faecalis, read-out: minimum inhibitory concentration (MIC). As to the method:
as §1

For assay [5], the system named is E. coli SK 12140. Nature of the assay: MIC in vitro. Type of assay: cell-based. The note with it: Escherichia coli. As to the method: as §1
For assay [6], the system named is Kleb. pneumo. SK 4200. In words: MIC in vitro. Type of assay: cell-based. To be noted: read-out: minimum inhibitory concentration (MIC). How it is done: as §1
For assay [7], the system named is Salmonella ATCC 12176. In words: MIC in vitro. Type of assay: cell-based. To be noted: ATCC12176, read-out: minimum inhibitory concentration (MIC). How it is done: as §1
For assay [8], the system named is Proteus mirabilis PN-444. Nature of the assay: MIC in vitro. Type of assay: cell-based. As to the method: as §1
For assay [9], the system named is Serratia marc. ATCC 13880. Nature of the assay: MIC in vitro. Type of assay: cell-based. The note with it: ATCC13880, read-out: minimum inhibitory concentration (MIC). How it is done: as §1
In assay [10] the test system is E. coli HH 33779. In words: MIC in vitro. Type of assay: cell-based. The note with it: Escherichia coli. As to the method: as §1
The test system of assay [11] is S. aureus HH 127. Nature of the assay: MIC in vitro. Type of assay: cell-based. The note with it: Staphylococcus aureus. How it is done: as §1
The subject of assay [12] is S. aureus SK 23390. In words: MIC in vitro. Type of assay: cell-based. To be noted: Staphylococcus aureus. How it is done:
as §1

Assay [13] relates to Entero. aerog. ATCC 13048. Nature of the assay: MIC in vitro. The assay is classed as cell-based. The note with it: read-out: minimum inhibitory concentration (MIC). How it is done: as §1
The subject of assay [14] is Entero. cloacae HH 31254. Nature of the assay: MIC in vitro. The assay is classed as cell-based. The note with it: Enterobacter cloacae, HH31254, read-out: minimum inhibitory concentration (MIC). How it is done:
as §1

Assay [15] has as its system Pseudo. aeru. HH 63. Nature of the assay: MIC in vitro. Type of assay: cell-based. To be noted: read-out: minimum inhibitory concentration (MIC). As to the method:
as §1

The subject of assay [16] is Kleb. pneumo. In words: ED50 in infected mice. Type of assay: in vivo. To be noted: two determinations; for ED50: Mus musculus, read-out: ED50 in mice against Kleb. pneumo. How it is done:
(s.c.); 25 and 10 mg/kg against E. coli as well as 8.7 and 8.5 mg/kg against Kleb. pneumo. (p.o.).

The test system of assay [17] is E. coli. In words: ED50 in infected mice. To be noted: two determinations; for ED50: Escherichia coli, read-out: ED50 in mice against E. coli. Type of assay: in vivo.
The mark [18] stands for this setting: in vitro, S. aureus villaluz SK 70390.
Where [19] appears, read: SK12140, in vitro, E. coli SK 12140, read-out: minimum inhibitory concentration (MIC).
[20] abbreviates: PN444, in vitro, Proteus mirabilis PN-444, read-out: minimum inhibitory concentration (MIC).
Setting [21] is: HH33779, in vitro, E. coli HH 33779, read-out: minimum inhibitory concentration (MIC).
Where [22] appears, read: HH127, in vitro, S. aureus HH 127, read-out: minimum inhibitory concentration (MIC).
Where [23] appears, read: SK23390, in vitro, S. aureus SK 23390, read-out: minimum inhibitory concentration (MIC).

As to `Cc1nnc(SCC2=C(C(=O)O)N3C(=O)[C@@H](NC(=O)Cn4cnnn4)[C@H]3SC2)s1` [Cefazolin], the MIC in assay [1] is 0.8 µg/mL (≈ 1.76 µM); in assay [2] (setting [18]), 100 µg/mL (≈ 220 µM); in assay [3] (in vitro, Proteus morgani 179) it was more than 200 µg/mL; in assay [4], 6.3 µg/mL (≈ 13.9 µM); in assay [5] (setting [19]), 0.8 µg/mL (≈ 1.76 µM); in assay [6], 1.6 µg/mL (≈ 3.52 µM). Moreover, the MIC was 0.8 µg/mL (≈ 1.76 µM) in assay [7]; 3.1 µg/mL (≈ 6.82 µM) in assay [8] (setting [20]); more than 200 µg/mL in assay [9]; 1.6 µg/mL (≈ 3.52 µM) in assay [10] (setting [21]); 0.4 µg/mL (≈ 0.88 µM) in assay [11] (setting [22]); 0.2 µg/mL (≈ 0.44 µM) in assay [12] (setting [23]). Moreover, the values for the MIC in assay [13], in assay [14] and in assay [15] were 1.6 µg/mL (≈ 3.52 µM), 0.8 µg/mL (≈ 1.76 µM) and more than 200 µg/mL, respectively.

Take `CC1=C(C(=O)O)N2C(=O)[C@@H](NC(=O)[C@H](N)c3ccccc3)[C@H]2SC1` [Cephalexin]: the ED50 in [16] (po) was 19 mg/kg; in assay [16] (sc), 16.5 mg/kg; in [17] (po), 21.5 mg/kg; in [17] (sc), 12.5 mg/kg. In addition, the “ED50 in mice against Kleb. pneumo.” value in [16] (p.o.) was 10 mg/kg. The “ED50 in mice against E. coli” value in assay [17] (p.o.) was found to be 18 mg/kg.

Regarding `CC(=O)OCC1=C(C(=O)O)N2C(=O)[C@@H](NC(=O)Cc3cccs3)[C@H]2SC1` [Cephalothin], the MIC in assay [1] is 1.6 µg/mL (≈ 4.04 µM); in assay [2], 50 µg/mL (≈ 126 µM); in assay [3] it was more than 200 µg/mL; in assay [4], 6.3 µg/mL (≈ 15.9 µM); in assay [5] (SK12140, read-out: minimum inhibitory concentration (MIC)), 3.1 µg/mL (≈ 7.82 µM); in assay [6], 1.6 µg/mL (≈ 4.04 µM). The MIC in assay [7] was 1.6 µg/mL (≈ 4.04 µM); in assay [8] (Proteus mirabilis, PN444, read-out: minimum inhibitory concentration (MIC)), 0.8 µg/mL (≈ 2.02 µM); in assay [9] it was more than 200 µg/mL; in [10] (HH33779, read-out: minimum inhibitory concentration (MIC)), 6.3 µg/mL (≈ 15.9 µM); in [11] (HH127, read-out: minimum inhibitory concentration (MIC)) it was 0.4 µg/mL (≈ 1.01 µM); in assay [12] (SK23390, read-out: minimum inhibitory concentration (MIC)), 0.1 µg/mL (≈ 0.252 µM). The values for the MIC in assay [13], in [14] and in assay [15] were 12.5 µg/mL (≈ 31.5 µM), 6.3 µg/mL (≈ 15.9 µM) and more than 200 µg/mL, respectively.

As for `O=C(O)C1=C(CSc2nnc(CS(=O)(=O)O)s2)CS[C@@H]2[C@H](NC(=O)[C@H](O)c3ccccc3)C(=O)N12` [Compound A, 7-D-mandelamido-3-(5-sulfomethyl-1,3,4-thiadiazol-2-ylthiomethyl)-3-cephem-4-carboxylic acid, disodium salt, tetrahydrate], the ED50 in [16] (po) amounted to 8.7 mg/kg; in [16] (sc), 0.78 mg/kg; in [17] (sc), 0.3 mg/kg. Further, the “ED50 in mice against Kleb. pneumo.” value is reported as 8.5 mg/kg in [16] (p.o.) and 0.62 mg/kg in assay [16] (s.c.). In addition, the “ED50 in mice against E. coli” value in assay [17] (s.c.) is 0.39 mg/kg. Further, the MIC is 0.4 µg/mL in [1]; 200 µg/mL in assay [2] (setting [18]); 1.6 µg/mL in [3] (in vitro, Proteus morgani 179); 25 µg/mL in assay [4]; 0.4 µg/mL in [5] (setting [19]); 0.4 µg/mL in assay [6]. In addition, the MIC was found to be 0.4 µg/mL in [7]; 0.4 µg/mL in assay [8] (setting [20]); 25 µg/mL in assay [9]; 0.8 µg/mL in [10] (setting [21]); 1.6 µg/mL in assay [11] (setting [22]); 0.4 µg/mL in assay [12] (setting [23]). The figures for the MIC in [13], in assay [14] and in assay [15] were 1.6 µg/mL, 0.4 µg/mL and more than 200 µg/mL, respectively.
